In patent US9604947B2, “Substituted 5-imino-1,2,4-thiadiazoles that can be used to treat neurodegenerative diseases” (CONSEJO SUPERIOR DE INVESTIGACIONES CIENTIFICAS (CSIC), priority 2009, dated 2017):
Structures can show the parent of a compound that is named as a salt. Where two headings read alike, the source gives them in different places.

Assays:
PDE7A1 = biological target: T1, PDE7A1 (Homo sapiens, UniProt Q13946); assay: Determination of PDE7 inhibition (SPA, [3H]cAMP); type: biochemical; details: for IC50: read-out: IC50 (PDE7A); for inhibition at 10 µM: read-out: % inhibition of PDE7A at 10 μM, hydrobromides
T1 construct: purchased Calbiochem 524751
Method: PDE-7 inhibition was performed with a commercial kit for the determination of phosphodiesterase activity (GE Healthcare Life Sciences, cat#TRKQ7090).
The compounds to be evaluated were incubated (in concentrations between 0.1 nM and 100 μM) in presence of 0.02 U/well of PDE7A1 (Calbiochem cat#524751) and 0.05 μCi of [^3H] cAMP, for 20 min at 30° C. in the assay buffer of kit (total volume=100 μl).
After this time, 50 μl of a suspension of 20 mg/ml microspheres of SPA of Ytrium silicate were added and was maintained under stirring at room temperature for 60 min. Finally, the plate was settled for 20 min and radioactivity was detected in a Microbeta Trilux reader.
In every assay there were included two points without PDE7A1 (blank) and two points with PDE7A1 without inhibitors (control).
Data Analysis: All the compounds were evaluated firstly at the concentration of 10 μM and the percentage of PDE7A1 inhibition was calculated, according to the following formula (cpm=counts per minute): % Inhibition=((cpm control−cpm sample)×100)/(cpm control−cpm blank assay).
For those compounds with % inhibition values above 45% it was calculated its inhibitory potency (IC50) building the dose-response curve.
The data were adjusted with the software Prism v 2.1 (GraphPad Software) using the non lineal fitting.

in vitro = assay: in vitro
Method: Ten commercial reference drugs, phosphate buffer saline solution at pH 7.4 (PBS), DMSO and dodecane were purchased from Sigma, Acros organics, Aldrich and Fluka. […] Filter PDVF membrane units (diameter 30 mm, pore size 0.45 μm) from Symta were used to filtered the samples. A 96-well plate UV reader (Thermoscientific, Multiskan spectrum) was used for the UV measurements. […] These solutions were filtered. The acceptor 96-well microplate was filled with 180 μL of PBS:DMSO (95:5). The donor 96-well plate was coated with 4 μL of porcine brain lipid in dodecane (20 mg mL^−1) and after 5 minutes, 180 μL of each compound solution was added. 1-2 mg of every compound to be determined their ability to pass the BBB were dissolved in 250 μL of DMSO and 4750 μL of PBS pH 7.4 buffer, filtered and then added to the donor 96-well plate. Then the donor plate was carefully put on the acceptor plate to form a “sandwich”, which was left undisturbed for 4 h at 25° C.
During this time the compounds diffused from the donor plate through the brain lipid membrane into the acceptor plate. After incubation, the donor plate was removed. The concentration of compounds and commercial drugs in the acceptor and the donor wells was determined by UV plate reader. Every sample was analyzed from three to five wavelengths, in 3 wells and in at least three independent runs. […] 11 quality control compounds (previously mentioned) of known BBB permeability were included in each experiment to validate the analysis set.

[1] = 1,2,4-thiadiazoles-5-imino substituted as hydrobromides
[2] = 1,2,4-thiadiazoles-5-imino substituted as hydrochlorides

T1 sequence (Q13946 whole entry): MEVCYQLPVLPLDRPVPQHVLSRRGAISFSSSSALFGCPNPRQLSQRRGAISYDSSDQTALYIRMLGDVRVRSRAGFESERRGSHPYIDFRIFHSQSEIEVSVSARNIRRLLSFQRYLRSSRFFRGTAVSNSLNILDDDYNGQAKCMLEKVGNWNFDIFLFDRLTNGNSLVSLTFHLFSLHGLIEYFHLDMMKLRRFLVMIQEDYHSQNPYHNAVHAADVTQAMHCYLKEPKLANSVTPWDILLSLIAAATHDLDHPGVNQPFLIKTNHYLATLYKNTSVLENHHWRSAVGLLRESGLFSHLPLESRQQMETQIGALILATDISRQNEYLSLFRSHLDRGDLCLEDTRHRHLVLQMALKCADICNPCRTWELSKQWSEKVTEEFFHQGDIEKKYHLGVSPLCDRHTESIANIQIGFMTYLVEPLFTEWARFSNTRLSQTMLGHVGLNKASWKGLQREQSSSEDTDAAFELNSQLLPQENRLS

Row | Structure (SMILES) | IC50 (PDE7A1; [1]) | Prediction (predictive penetration in the CNS) (in vitro; PAMPA) | Papp at 4 h (in vitro; PAMPA, pH 7.4) | further results
1 | Br.Br.COc1ccc(-c2nc(=NCc3cccnc3)sn2-c2ccccc2)cc1 [VP-1.43, 3-(4-Methoxyphenyl)-2-phenyl-5-(3-pyridylmethylimino)-2,5-dihydro-1,2,4-thiadiazole dihydrobromide] | 0.86 µM | CNS+ | 4.4 ± 0.6 ×10⁻⁶ cm/s | –
2 | Br.Br.c1ccc(-c2nc(=NCc3cccnc3)sn2-c2ccccc2)cc1 [VP-1.14, 2,3-Diphenyl-5-(3-pyridinylmethylimino)-2,5-dihydro-1,2,4-thiadiazole dihydrobromide] | 0.38 µM | CNS+ | 10.7 ± 0.3 ×10⁻⁶ cm/s | –
3 | Br.Br.Cc1nc(=NCc2cccnc2)sn1-c1ccccc1 [VP-2.63, 3-Methyl-2-phenyl-5-(3-pyridylmethylimino)-2,5-dihydro-1,2,4-thiadiazole dihydrobromide] | – | CNS+ | 5.3 ± 0.9 ×10⁻⁶ cm/s | inhibition at 10 µM (PDE7A1; at 10 μM): 54%
4 | Br.Br.COc1ccc(-n2sc(=NCc3cccnc3)nc2-c2ccccc2)cc1 [VP-1.60, 2-(4-Methoxyphenyl)-3-phenyl-5-(3-pyridinylmethylimino)-2,5-dihydro-1,2,4-thiadiazole dihydrobromide] | 0.85 µM | CNS+ | 6.2 ± 0.4 ×10⁻⁶ cm/s | –
5 | Br.OCCN=c1nc(-c2ccccc2)n(-c2ccccc2)s1 [VP-1.15, 5-(2-Hydroxyethylimino)-2,3-diphenyl-2,5-dihydro-1,2,4-thiadiazole hydrobromide] | 1.11 µM | CNS+ | 15.4 ± 2 ×10⁻⁶ cm/s | –
6 | c1ccc(N=c2nc(-c3ccccc3)n(-c3ccccc3)s2)cc1 [R1=Ph, R2=Ph, R3=Ph (hydrobromide), 2,3-Diphenyl-5-phenylimino-2,5-dihydro-1,2,4-thiadiazole hydrobromide] | 3.03 µM | – | – | –
7 | CC(C)NCC(O)COc1ccc(CC(N)=O)cc1 (stereo not drawn) [Atenolol, reference compound] | – | – | – | Pe (10^−6 cm s^−1) (in vitro; pig, PAMPA, 4 h, pH 7.4): 0.8 ± 1.1 10^−6 cm s^−1
8 | c1ccc(-c2nc(=NCc3cccnc3)sn2-c2cccc3ccccc23)cc1 [2-(1-Naphthyl)-3-phenyl-5-(3-pyridylmethylimino)-2,5-dihydro-1,2,4-thiadiazole dihydrobromide] | 0.87 µM | – | – | –
9 | COc1ccc(-c2nc(=Nc3ccccc3)sn2-c2ccccc2)cc1 [R1=pOMePh, R2=Ph, R3=Ph (hydrobromide)] | 4.36 µM | – | – | –
10 | c1ccc(N=c2nc(-c3ccccc3)n(-c3ccccc3)s2)cc1 [R1=Ph, R2=Ph, R3=Ph (free base), 2,3-Diphenyl-5-phenylimino-2,5-dihydro-1,2,4-thiadiazole] | – | – | – | IC50 (PDE7A1; 1,2,4-thiadiazoles-5-imino substituted as free bases): 3.52 µM
11 | CCn1cc(C(=O)O)c(=O)c2cc(F)c(N3CCNCC3)nc21 [Enoxacin, reference compound] | – | – | – | Pe (10^−6 cm s^−1) (in vitro; pig, PAMPA, 4 h, pH 7.4): 0.9 ± 0.5 10^−6 cm s^−1
12 | Br.CCOC(=O)CN=c1nc(-c2ccccc2)n(-c2ccccc2)s1 [VP-1.16, 5-Ethoxycarbonylmethylimino-2,3-diphenyl-2,5-dihydro-1,2,4-thiadiazole hydrobromide] | 1.13 µM | CNS+ | 6.2 ± 0.4 ×10⁻⁶ cm/s | –
13 | OCCN=c1nc(-c2ccccc2)n(-c2ccccc2)s1 [VP-2.3, 5-(2-Hydroxyethylimino)-2,3-diphenyl-2,5-dihidro-1,2,4-thiadiazole hydrochloride] | – | CNS+ | 15 ± 2 ×10⁻⁶ cm/s | IC50 (PDE7A1; [2]): 1.97 µM
14 | CCOC(=O)CN=c1nc(-c2ccccc2)n(-c2ccc([N+](=O)[O-])cc2)s1 [5-Ethoxycarbonylmethylimino-2-(4-nitrophenyl)-3-phenyl-2,5-dihydro-1,2,4-thiadiazole hydrobromide] | 0.79 µM | – | – | –
15 | CCCCCN=c1nc(-c2ccc(OC)cc2)n(-c2ccccc2)s1 [3-(4-Methoxyphenyl)-5-pentylimino-2-phenyl-2,5-dihydro-1,2,4-thiadiazole hydrochloride] | – | – | – | IC50 (PDE7A1; [2]): 3.7 µM
16 | CN1C(C(=O)Nc2ccccn2)=C(O)c2ccccc2S1(=O)=O [Piroxicam, reference compound] | – | – | – | Pe (10^−6 cm s^−1) (in vitro; PBS:DMSO (95:5) as solvent, 4 h at 25° C., mean ± SD of at least 3 independent experiments): 2.2 ± 0.9 10^−6 cm s^−1

Row | Structure (SMILES) | IC50 (PDE7A1; [1]) | Prediction (predictive penetration in the CNS) (in vitro; PAMPA) | Papp at 4 h (in vitro; PAMPA, pH 7.4) | further results
17 | c1ccc(-n2sc(=NCc3cccnc3)nc2-c2cccc3ccccc23)cc1 [3-(1-Naphthyl)-2-phenyl-5-(3-pyridylmethylimino)-2,5-dihydro-1,2,4-thiadiazole hydrochloride] | – | – | – | IC50 (PDE7A1; [2]): 1.5 µM
18 | c1ccc(-c2nc(=NCCN3CCOCC3)sn2-c2ccccc2)cc1 [5-(2-Morpholinethylimino)-2,3-diphenyl-2,5-dihydro-1,2,4-thiadiazole dihydrobromide] | 1.59 µM | – | – | –
19 | OCCN=c1nc(-c2ccccc2)n(-c2cccc3ccccc23)s1 [5-(2-Hydroxyethylimino)-2-(1-naphthyl)-3-phenyl-2,5-dihydro-1,2,4-thiadiazole hydrobromide] | 2.2 µM | – | – | –
20 | Br.CCOC(=O)CN=c1nc(-c2ccccc2)n(-c2ccc(OC)cc2)s1 [VP-1.62, 5-Ethoxycarbonylmethylimino-2-(4-methoxyphenyl)-3-phenyl-2,5-dihydro-1,2,4-thiadiazole hydrobromide] | 0.78 µM | CNS+/CNS− | 4 ± 0.8 ×10⁻⁶ cm/s | –
21 | CCCCCN=c1nc(-c2ccccc2)n(-c2ccccc2)s1 [R1=Ph, R2=Ph, R3=n-Pent (hydrobromide), 5-Pentylimino-2,3-diphenyl-2,5-dihydro-1,2,4-thiadiazole hydrobromide] | 1.44 µM | – | – | –
22 | c1ccc(-n2sc(=NCc3cccnc3)nc2-c2cccc3ccccc23)cc1 [3-(1-Naphthyl)-2-phenyl-5-(3-pyridylmethylimino)-2,5-dihydro-1,2,4-thiadiazole dihydrobromide] | 1.08 µM | – | – | –
23 | CCOC(=O)CN=c1nc(-c2ccccc2)n(-c2ccccc2)s1 [R1=Ph, R2=Ph, R3=CH2CO2Et (free base), 5-Ethoxycarboximethylimino-2,3-diphenyl-2,5-dihydro-1,2,4-thiadiazole] | – | – | – | % inhibition of PDE7A at 10 μM (PDE7A1; free bases, at 10 μM): 6%@10
24 | CCCCCN=c1nc(-c2ccc(OC)cc2)n(-c2ccccc2)s1 [3-(4-Methoxyphenyl)-5-pentylimino-2-phenyl-2,5-dihydro-1,2,4-thiadiazole hydrobromide] | 0.81 µM | – | – | –
25 | Br.CCOC(=O)CN=c1nc(-c2ccc(OC)cc2)n(-c2ccccc2)s1 [VP-1.65, 5-Ethoxycarbonylmethylimino-3-(4-methoxyphenyl)-2-phenyl-2,5-dihydro-1,2,4-thiadiazole hydrobromide] | 0.89 µM | CNS+/CNS− | 3.8 ± 0.2 ×10⁻⁶ cm/s | –
26 | O=[N+]([O-])c1ccc(-n2sc(=NCc3cccnc3)nc2-c2ccccc2)cc1 [2-(4-Nitrophenyl)-3-phenyl-5-(3-pyridinylmethylimino)-2,5-dihydro-1,2,4-thiadiazole dihydrobromide] | 0.84 µM | – | – | –
27 | Br.COc1ccc(-c2nc(=NCCO)sn2-c2ccccc2)cc1 [VP-1.40, 5-(2-Hydroxyethylimino)-3-(4-methoxyphenyl)-2-phenyl-2,5-dihydro-1,2,4-thiadiazole hydrobromide] | 1.5 µM | CNS+ | 13.7 ± 0.8 ×10⁻⁶ cm/s | –
28 | Br.OCCN=c1nc(-c2cccc3ccccc23)n(-c2ccccc2)s1 [VP-2.33, 5-(2-Hydroxyethylimino)-3-(1-naphthyl)-2-phenyl-2,5-dihydro-1,2,4-thiadiazole hydrobromide] | 1.24 µM | – | 10.2 ± 0.6 ×10⁻⁶ cm/s | Prediction (predictive penetration in the CNS) (in vitro; PAMPA-BBB): CNS+
29 | c1ccc(-c2nc(=NC3CCCCC3)sn2-c2ccccc2)cc1 [R1=Ph, R2=Ph, R3=Cy (hydrobromide)] | 1.64 µM | – | – | –
30 | CN(C)CCCN1c2ccccc2Sc2ccccc21 [Promazine, reference compound] | – | – | 9.7 ± 1.5 ×10⁻⁶ cm/s | –
31 | N=c1nc(-c2ccccc2)n(-c2ccccc2)s1 [R1=Ph, R2=Ph, R3=H (hydrobromide)] | 1.02 µM | – | – | –
32 | FC(F)(F)c1ccc(-c2nc(=NCc3cccnc3)sn2-c2ccccc2)cc1 [3-(4-Trifluoromethylphenyl)-2-phenyl-5-(3-pyridylmethylimino)-2,5-dihydro-1,2,4-thiadiazole dihydrobromide] | – | – | – | inhibition at 10 µM (PDE7A1; at 10 μM): 87%
